Measurements: patent US5292737A, “N,N'-bis(sulfonamido)-2-amino-4-iminonaphthalen-1-ones and N,N'-bis(amido)-2-amino-4-iminonaphthalen-1-ones” (Sphinx Pharmaceuticals Corporation, priority 1992, dated 1994)
pIC50: −log10 of the molar value.

What was measured:
[1] = test system: normal human epidermal keratinocyte (NHEK) cells; assay: Human Keratinocyte Inhibition (3H TdR Assay); format: cell-based; settings: 24 h incubation, 3H-thymidine
Method: Proliferating normal human epidermal keratinocyte (NHEK) cells were obtained in the second passage and grown in keratinocyte growth medium, KGM (Clonetics, Inc.) at 37° C., 5% CO2. The cells were trypsinized (0.25%), centrifuged, counted with a hemocytometer, and seeded at a concentration of 5000 cells in 100 μl well in a 96-well microtiter plate.
After the cells were allowed to attach to the microtiter plate overnight, test agents were titrated to determine the dose response. This was done by adding each test agent dilution in quadruplicate to the plate at 2× final concentration in 100 μl to bring the total volume of each well to 200 μl. Culture media with no test agent added was used as a normal control. Duplicate sets of plates were established.
After twenty-four hours of incubation with test compounds 37° C. and 5% CO2, […] of 0.01 mCi/ml tritiated thymidine (New England Nuclear) was added to each well and allowed to incubate for another 4 hours under the same conditions.
Supernatant was aspirated and discarded and […] of 0.05% trypsin (Gibco) was added to each cell. Cells were checked microscopically to determine detachment from surfaces and then harvested onto glass filters. The filters were then placed in vials to which scintillant was added and counted for one minute each in a scintillation counter.
Determine mean cpm of wells containing test agent (n=4) or KGM control (n=16). Calculate % of control by the formula: [formula]
(§1) The IC50, or connection necessary to inhibit 50% of control, of each test agent was determined by plotting % control vs log concentration for each dilution and then linear forecasting the 50% control value onto the X axis on a Quatro Pro computer program. Only regression values with a correlation coefficient greater than 0.9 were considered acceptable.

PKC isoenzyme δ = biological target: T1, PKC isoenzyme δ (Homo sapiens, UniProt Q05655); assay: Protein kinase C inhibition assay, PKC isoenzyme δ; format: biochemical; settings: read-out: IC50 PKC δ
T1 construct: made in house; host or cells: baculovirus-insect cell expression system
T1 sequence (Q05655 whole entry): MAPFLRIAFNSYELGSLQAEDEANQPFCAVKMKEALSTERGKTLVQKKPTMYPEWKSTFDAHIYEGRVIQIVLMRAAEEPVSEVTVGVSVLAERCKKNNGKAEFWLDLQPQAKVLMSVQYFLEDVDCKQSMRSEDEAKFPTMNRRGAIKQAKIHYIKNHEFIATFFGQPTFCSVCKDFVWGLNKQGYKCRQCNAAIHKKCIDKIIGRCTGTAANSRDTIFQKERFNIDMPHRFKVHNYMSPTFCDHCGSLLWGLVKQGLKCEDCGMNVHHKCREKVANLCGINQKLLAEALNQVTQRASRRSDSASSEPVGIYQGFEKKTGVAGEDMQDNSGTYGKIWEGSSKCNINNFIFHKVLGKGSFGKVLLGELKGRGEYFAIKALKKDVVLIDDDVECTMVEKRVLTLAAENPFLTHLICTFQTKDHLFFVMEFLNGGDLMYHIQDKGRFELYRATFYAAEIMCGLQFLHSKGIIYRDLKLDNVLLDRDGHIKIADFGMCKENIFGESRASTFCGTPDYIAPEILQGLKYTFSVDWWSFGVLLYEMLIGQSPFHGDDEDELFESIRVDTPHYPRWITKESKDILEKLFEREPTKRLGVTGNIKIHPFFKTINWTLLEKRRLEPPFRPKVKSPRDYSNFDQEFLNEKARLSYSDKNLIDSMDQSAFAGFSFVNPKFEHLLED
Method: (§2) A protein kinase C (PKC) assay is designed to duplicate the in vivo conditions required for protein kinase C function. Therefore, pH, salt and cofactor concentrations are similar to physiologic levels. Either lysine rich histone H1 (H1) or Myelin basic protein (Mbp) are used in the assay as the phosphorylation acceptor-protein because they are readily available and serve as good substrates for protein kinase C. Enzyme was prepared from baculovirus-insect cell expression systems.
(§3) In the screening assay, phosphatidylserine (PS) and DAG were co-sonicated to form unilamellar and multilamellar vesicles. The concentration of lipids in the assay were suboptimal to maximize the detection potential of the assay for inhibitors or activators. Potential effector compounds were added to the assay in dimethylsulfoxide at four concentrations to give final inhibitor concentrations of 1, 10, 50, and 150 μM, respectively.
(§4) The assay was started with the addition of enzyme and stopped after 10 min by the addition of 25% trichloroacetic acid (TCA) and 1.0 mg/ml bovine serum albumin (BSA). The radioactive histone product was retained and washed on glass fiber filters that allow the unreacted P-ATP to pass through. The amount of phosphorylation was determined by measuring radioactivity with a scintillation counter. Controls were included in every assay to measure background activity in the absence of enzyme, activity in the absence of lipids, and the maximum enzyme activity with saturating levels of the activator lipids.
(§5) Results of the protein kinase C assay are shown in Table 4 in columns labeled α, βII, γ, δ, ε, and .zeta. which represent various PKC isoenzymes. Results are show as IC50, which is the concentration of test compound needed to inhibit 50% of the protein kinase C activity in controls.

[2] = test system: MCF-7 human breast tumor cell line; assay: Human Tumor Cell Growth Inhibition (3H-thymidine incorporation); format: cell-based
Method: MCF-7 a human breast tumor cell line was obtained from the National Cancer Institute, Frederick, Md. Tumor cells were trypsinized with 0.05% trypsin obtained from GIBCO (Grand Island Biological Co. Laboratories, Grand Island, N.Y.), counted with a hemacytometer and seeded at a concentration of 7,500 cells/well in a 96 well microtiter plate and allowed to attach to the surface overnight. To determine a concentration response, test agents were serially diluted an […] added at 2× final concentration to quadruplicate cultures to bring the total volume of each well to […]. The microtiter plate was then incubated at 37° C., 5% CO2 for 24 hrs with ^3 H-thymidine added at a concentration of 0.5 mCi/well in […] of 0.05% trypsin (GIBCO) was added to each well. Cells were checked microscopically to determine detachment from surfaces, and plates were harvested with a cell harvester (PHD, Cambridge Technology, Inc.). Filter paper corresponding to wells were placed in scintillation vials and counted to determine the amount ^3 H-thymidine incorporated by the cells. Counts per minute (CPM) of quadruplicate cultures were averaged and a percent of control calculated for each test agent concentration by the following formula: [formula]
as §1, with “The IC50” for “The IC50,”, “or concentration” for “or connection”, “inhibit the proliferation of cells by” for “inhibit”, “50% compared to” for “50% of”, “a Quattro” for “a Quatro”, “greater then” for “greater than”

PKC isoenzyme γ = biological target: T2, PKC isoenzyme γ (Homo sapiens, UniProt P05129); assay: Protein kinase C inhibition assay, PKC isoenzyme γ; format: biochemical; settings: read-out: IC50 PKC γ
T2 construct: made in house; host or cells: baculovirus-insect cell expression system
Method: as §2, §3, §4, §5

PKC isoenzyme βII = biological target: T3, PKC isoenzyme βII (Homo sapiens, UniProt P05771); assay: Protein kinase C inhibition assay, PKC isoenzyme βII; format: biochemical; settings: read-out: IC50 PKC βII
T3 construct: made in house; host or cells: baculovirus-insect cell expression system
T3 sequence (P05771 1-673 isoform P05771-2): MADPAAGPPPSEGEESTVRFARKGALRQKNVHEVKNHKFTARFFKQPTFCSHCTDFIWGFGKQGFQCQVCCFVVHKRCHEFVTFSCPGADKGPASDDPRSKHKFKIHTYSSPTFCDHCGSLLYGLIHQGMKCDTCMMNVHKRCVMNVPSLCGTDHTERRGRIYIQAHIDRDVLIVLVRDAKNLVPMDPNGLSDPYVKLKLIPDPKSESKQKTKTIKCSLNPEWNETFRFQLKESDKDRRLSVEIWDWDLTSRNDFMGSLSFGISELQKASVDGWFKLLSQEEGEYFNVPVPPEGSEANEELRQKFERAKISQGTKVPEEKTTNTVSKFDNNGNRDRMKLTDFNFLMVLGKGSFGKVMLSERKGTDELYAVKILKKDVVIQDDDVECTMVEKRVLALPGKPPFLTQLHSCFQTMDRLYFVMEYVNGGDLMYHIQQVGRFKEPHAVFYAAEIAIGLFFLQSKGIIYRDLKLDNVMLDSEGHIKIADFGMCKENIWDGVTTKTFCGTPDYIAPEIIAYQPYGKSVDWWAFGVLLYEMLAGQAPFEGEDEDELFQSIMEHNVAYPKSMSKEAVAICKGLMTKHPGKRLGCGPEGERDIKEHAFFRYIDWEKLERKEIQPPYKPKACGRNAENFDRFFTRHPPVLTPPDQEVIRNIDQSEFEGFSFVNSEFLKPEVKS
Method: as §2, §3, §4, §5

PKC isoenzyme ε = biological target: T4, PKC isoenzyme ε (Homo sapiens, UniProt Q02156); assay: Protein kinase C inhibition assay, PKC isoenzyme ε; format: biochemical; settings: read-out: IC50 PKC ε
T4 construct: made in house; host or cells: baculovirus-insect cell expression system
T4 sequence (Q02156 1-737): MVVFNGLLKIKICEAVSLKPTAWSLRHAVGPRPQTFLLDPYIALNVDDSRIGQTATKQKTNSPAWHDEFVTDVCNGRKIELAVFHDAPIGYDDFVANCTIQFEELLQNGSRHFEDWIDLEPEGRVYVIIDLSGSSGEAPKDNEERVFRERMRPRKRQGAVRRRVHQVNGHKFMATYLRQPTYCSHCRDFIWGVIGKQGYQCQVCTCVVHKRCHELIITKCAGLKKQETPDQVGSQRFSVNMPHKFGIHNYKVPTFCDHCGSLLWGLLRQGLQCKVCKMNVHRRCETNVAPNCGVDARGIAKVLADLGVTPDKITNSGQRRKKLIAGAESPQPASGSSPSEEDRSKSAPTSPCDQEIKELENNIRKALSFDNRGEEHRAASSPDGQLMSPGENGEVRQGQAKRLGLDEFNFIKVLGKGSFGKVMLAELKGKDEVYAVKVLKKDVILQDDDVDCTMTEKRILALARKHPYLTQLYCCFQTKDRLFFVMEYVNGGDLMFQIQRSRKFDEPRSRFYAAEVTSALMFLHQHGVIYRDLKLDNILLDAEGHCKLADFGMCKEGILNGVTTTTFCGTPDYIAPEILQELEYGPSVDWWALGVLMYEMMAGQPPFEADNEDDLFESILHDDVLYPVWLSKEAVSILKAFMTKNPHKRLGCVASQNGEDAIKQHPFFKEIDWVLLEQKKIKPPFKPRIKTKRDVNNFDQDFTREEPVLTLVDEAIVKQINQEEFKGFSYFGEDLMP
Method: as §2, §3, §4, §5

[3] = Homo sapiens, MCF7, MCF-7, 24 hrs

| pIC50 (PKC isoenzyme δ) | pIC50 ([2]; MCF-7, 24 hrs) | pIC50 (PKC isoenzyme γ) | pIC50 (PKC isoenzyme βII) | pIC50 (PKC isoenzyme ε) | pIC50 [2, 3] | SMILES | pIC50 [1] | pIC50 ([1]; Homo sapiens) |
| --- | --- | --- | --- | --- | --- | --- | --- | --- |
| < 3.82 | 4.68 | 4.70 | 4.48 |  |  | COc1cc(NS(=O)(=O)c2ccc(N=C3C=C(Nc4ccc(S(=O)(=O)Nc5cc(OC)nc(OC)n5)cc4)C(=O)c4ccccc43)cc2)nc(OC)n1 [Compound 6g] | 5.85 |  |
| 4.37 | 4.75 | 4.74 |  |  |  | Cc1ccnc(NS(=O)(=O)c2ccc(N=C3C=C(Nc4ccc(S(=O)(=O)Nc5nccc(C)n5)cc4)C(=O)c4ccccc43)cc2)n1 [Compound 6f] | 5.85 |  |
| 4.02 |  | 4.44 | 4.51 | < 3.82 | 4.76 | Cc1cc(NS(=O)(=O)c2ccc(N=C3C=C(Nc4ccc(S(=O)(=O)Nc5cc(C)nc(C)n5)cc4)C(=O)c4ccccc43)cc2)nc(C)n1 [Compound 3d] |  | 5.70 |
| < 3.82 |  | 4.40 | 3.84 | 3.95 | 6.08 | COc1cc(NS(=O)(=O)c2ccc(N=C3C=C(Nc4ccc(S(=O)(=O)Nc5cc(OC)cc(OC)c5)cc4)C(=O)c4ccccc43)cc2)cc(OC)c1 [Compound 3af] |  | > 6.41 |
| 4.43 | 4.72 | 5.00 | 4.64 | 3.85 |  | O=C1C(Nc2ccc(S(=O)(=O)Nc3cnc4ccccc4n3)cc2)=CC(=Nc2ccc(S(=O)(=O)Nc3cnc4ccccc4n3)cc2)c2ccccc21 [Compound 6m] | > 6.41 |  |
|  | 6.12 | 4.36 | < 3.82 | 3.83 |  | O=C1C(Nc2ccc(S(=O)(=O)NCc3ccccn3)cc2)=CC(=Nc2ccc(S(=O)(=O)NCc3ccccn3)cc2)c2ccccc21 [Compound 6n] | 6.30 |  |
| 5.00 | 4.81 | 5.15 | 4.85 | 4.82 |  | Cc1cc(C)nc(NS(=O)(=O)c2ccc(N=C3C=C(Nc4ccc(S(=O)(=O)Nc5nc(C)cc(C)n5)cc4)C(=O)c4ccccc43)cc2)n1 [Compound 6c] | 7.40 |  |
|  | 5.92 | 4.22 | < 3.82 | < 3.82 |  | COc1cc(NS(=O)(=O)c2ccc(N=C3C=C(Nc4ccc(S(=O)(=O)Nc5cc(OC)cc(OC)c5)cc4)C(=O)c4ccccc43)cc2)cc(OC)c1 [Compound 6af] |  |  |
| 4.30 |  | 5.05 | 4.54 | < 3.82 |  | O=C1C(Nc2ccc(S(=O)(=O)Nc3ccc(Cl)nn3)cc2)=CC(=Nc2ccc(S(=O)(=O)Nc3ccc(Cl)nn3)cc2)c2ccccc21 [Compound 6l] | 5.48 |  |
| 4.51 |  | 4.60 | 4.54 | 3.84 |  | Cc1noc(NS(=O)(=O)c2ccc(N=C3C=C(Nc4ccc(S(=O)(=O)Nc5onc(C)c5C)cc4)C(=O)c4ccccc43)cc2)c1C [Compound 3b] |  | 4.94 |
| 4.47 |  |  | 4.62 | 3.84 |  | Cc1cc(NS(=O)(=O)c2ccc(N=C3C=C(Nc4ccc(S(=O)(=O)Nc5cc(C)on5)cc4)C(=O)c4ccccc43)cc2)no1 [Compound 6a] | 5.92 |  |
| 4.33 | 4.75 | 4.62 | 4.41 |  |  | Cc1cc(NS(=O)(=O)c2ccc(N=C3C=C(Nc4ccc(S(=O)(=O)Nc5cc(C)nc(C)n5)cc4)C(=O)c4ccccc43)cc2)nc(C)n1 [Compound 6d] | 5.60 |  |
| 3.95 | 4.96 | 4.52 | 4.33 |  |  | COc1ccc(NS(=O)(=O)c2ccc(N=C3C=C(Nc4ccc(S(=O)(=O)Nc5ccc(OC)nn5)cc4)C(=O)c4ccccc43)cc2)nn1 [Compound 6j] | 6.09 |  |
| 4.37 |  | 4.66 | 4.85 | < 3.82 |  | Cc1nnc(NS(=O)(=O)c2ccc(N=C3C=C(Nc4ccc(S(=O)(=O)Nc5nnc(C)s5)cc4)C(=O)c4ccccc43)cc2)s1 [Compound 3e] |  | 5.06 |
| < 3.82 | 4.83 | 4.39 | 4.01 |  |  | COc1cnc(NS(=O)(=O)c2ccc(N=C3C=C(Nc4ccc(S(=O)(=O)Nc5ncc(OC)cn5)cc4)C(=O)c4ccccc43)cc2)nc1 [Compound 6h] | 5.92 |  |
| 3.92 | 4.70 | 5.00 | 4.33 |  |  | O=C1C(Nc2ccc(S(=O)(=O)Nc3ccccn3)cc2)=CC(=Nc2ccc(S(=O)(=O)Nc3ccccn3)cc2)c2ccccc21 [Compound 6i] | 5.14 |  |
| 4.52 |  | 4.70 | 4.77 | 5.10 | 5.62 | Cc1cc(C)nc(NS(=O)(=O)c2cc(N=C3C=C(Nc4ccc(C)c(S(=O)(=O)Nc5cc(C)cc(C)n5)c4)C(=O)c4ccccc43)ccc2C)c1 [Compound 3ag] |  |  |
| 4.11 |  | 5.15 | 4.62 | < 3.82 |  | O=C1C(Nc2ccc(S(=O)(=O)Nc3ccc(Cl)nn3)cc2)=CC(=Nc2ccc(S(=O)(=O)Nc3ccc(Cl)nn3)cc2)c2ccccc21 [Compound 3l] |  | 5.37 |
| 4.46 |  | 4.92 | 4.62 |  |  | Cc1nnc(NS(=O)(=O)c2ccc(N=C3C=C(Nc4ccc(S(=O)(=O)Nc5nnc(C)s5)cc4)C(=O)c4ccccc43)cc2)s1 [Compound 6e] | 5.07 |  |
